Read-outs that look alike come from different tables or passages of the source.

Data set [1] has as its system CYP3A. Put plainly: In vitro CYP3A time-dependent inhibition. As to conditions: 0–300 μM. It counts as in vitro ADME.
Data set [2] in a line: Phase I DDI study: safety and tolerability. As to conditions: for overall safety and tolerability: healthy participants, clesacostat 15 mg b.i.d., ervogastat 300 mg b.i.d. It counts as in vivo, human.
Another data set deals with P‐glycoprotein (Pgp) (Homo sapiens, UniProt P08183). The data set can be described thus: In vitro efflux transporter study, P-glycoprotein. It counts as in vitro ADME.
Chain of P‐glycoprotein (Pgp) (P08183 whole entry): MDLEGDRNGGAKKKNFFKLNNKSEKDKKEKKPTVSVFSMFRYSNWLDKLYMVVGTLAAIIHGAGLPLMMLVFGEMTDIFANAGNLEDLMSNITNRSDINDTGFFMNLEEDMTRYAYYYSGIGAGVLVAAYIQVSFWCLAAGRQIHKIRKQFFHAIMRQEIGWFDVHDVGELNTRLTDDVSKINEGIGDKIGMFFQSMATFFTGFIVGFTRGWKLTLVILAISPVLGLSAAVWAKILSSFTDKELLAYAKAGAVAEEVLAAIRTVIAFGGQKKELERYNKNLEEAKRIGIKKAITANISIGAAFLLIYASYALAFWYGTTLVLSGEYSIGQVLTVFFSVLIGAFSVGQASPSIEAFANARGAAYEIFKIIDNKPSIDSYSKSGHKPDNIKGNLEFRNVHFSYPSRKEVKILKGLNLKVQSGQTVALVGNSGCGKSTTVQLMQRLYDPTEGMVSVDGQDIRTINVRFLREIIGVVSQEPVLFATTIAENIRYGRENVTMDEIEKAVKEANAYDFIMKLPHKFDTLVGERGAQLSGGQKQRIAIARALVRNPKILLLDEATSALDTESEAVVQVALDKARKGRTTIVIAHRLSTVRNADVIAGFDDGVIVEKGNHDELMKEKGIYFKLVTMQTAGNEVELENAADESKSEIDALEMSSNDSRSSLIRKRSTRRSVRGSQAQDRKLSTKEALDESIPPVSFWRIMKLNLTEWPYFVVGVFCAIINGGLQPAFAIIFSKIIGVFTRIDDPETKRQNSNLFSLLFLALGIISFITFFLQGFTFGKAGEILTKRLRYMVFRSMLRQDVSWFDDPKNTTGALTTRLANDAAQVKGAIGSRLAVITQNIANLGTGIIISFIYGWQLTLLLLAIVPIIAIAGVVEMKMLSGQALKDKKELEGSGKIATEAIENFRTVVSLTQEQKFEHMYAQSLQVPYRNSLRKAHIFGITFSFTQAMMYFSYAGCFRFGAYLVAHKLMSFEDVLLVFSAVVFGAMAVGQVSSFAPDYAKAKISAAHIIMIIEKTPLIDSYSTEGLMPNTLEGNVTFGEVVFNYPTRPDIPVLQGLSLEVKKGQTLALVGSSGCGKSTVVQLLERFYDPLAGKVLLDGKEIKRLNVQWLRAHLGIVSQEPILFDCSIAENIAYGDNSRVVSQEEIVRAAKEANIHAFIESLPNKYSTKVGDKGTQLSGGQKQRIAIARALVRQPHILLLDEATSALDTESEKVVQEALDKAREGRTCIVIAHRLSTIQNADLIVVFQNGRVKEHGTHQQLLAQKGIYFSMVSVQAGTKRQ
Data set [3] deals with T1, breast cancer resistance protein (BCRP) (Homo sapiens, UniProt Q9UNQ0).
T1 sequence (Q9UNQ0 1-655): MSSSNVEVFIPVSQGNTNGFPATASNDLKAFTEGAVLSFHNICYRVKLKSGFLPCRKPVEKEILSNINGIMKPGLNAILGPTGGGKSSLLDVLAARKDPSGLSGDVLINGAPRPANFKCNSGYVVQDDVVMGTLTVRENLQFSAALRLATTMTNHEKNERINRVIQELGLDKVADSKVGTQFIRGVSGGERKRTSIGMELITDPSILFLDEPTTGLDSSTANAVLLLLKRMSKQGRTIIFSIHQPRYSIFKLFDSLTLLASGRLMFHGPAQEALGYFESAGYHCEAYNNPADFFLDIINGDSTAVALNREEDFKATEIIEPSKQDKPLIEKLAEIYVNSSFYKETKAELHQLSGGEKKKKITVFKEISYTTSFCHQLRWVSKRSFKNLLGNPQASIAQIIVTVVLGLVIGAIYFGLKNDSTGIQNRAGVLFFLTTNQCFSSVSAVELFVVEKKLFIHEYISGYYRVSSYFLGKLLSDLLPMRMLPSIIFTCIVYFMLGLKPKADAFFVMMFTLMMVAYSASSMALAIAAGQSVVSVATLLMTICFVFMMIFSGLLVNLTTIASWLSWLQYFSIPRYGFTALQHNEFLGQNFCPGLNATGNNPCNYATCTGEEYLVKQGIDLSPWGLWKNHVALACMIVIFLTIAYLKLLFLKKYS
Put plainly: In vitro efflux transporter study, BCRP. The data set is classed as in vitro ADME.

Data set [4] is classed as in vivo, human.
Data set [5] deals with CYP3A. Put plainly: In vitro CYP3A induction in human hepatocytes. It counts as in vitro ADME.
The format of data set [6] is in vivo, human. As to conditions: for T max / Tmax: median (range); for PTR (peak-to-trough ratio): geometric mean; for CL/F: geometric mean (%CV); for Tmax: T max.
Data set [7] deals with CYP3A. As to conditions: healthy adults, total daily dose ≤720 mg; cited from earlier work.
Setting [8] is: same participant, Day 9 (7 days clesacostat alone then 2 days with ervogastat).
The mark [9] stands for this setting: clesacostat 15 mg b.i.d. co-administered with ervogastat 300 mg b.i.d.
Where [10] appears, read: ervogastat 300 mg + clesacostat 15 mg b.i.d., Day 14.
The mark [11] stands for this setting: ervogastat 300 mg b.i.d. alone, Day 7.

For the compound `COc1cc(C(=O)N2CCC3(CC2)CC(=O)c2c(cnn2C(C)C)C3)cc(-c2ccc(C(=O)O)cc2)n1` [clesacostat], the “composite slope based on observed inactivation rate constant (k obs)” value with CYP3A [1] (midazolam as probe) is 0.452 M⁻¹ s⁻¹. Further, in the data set with CYP3A [1] (testosterone as probe), the “composite slope based on observed inactivation rate constant (k obs)” value amounted to 0.398 M⁻¹ s⁻¹. The “overall safety and tolerability” value in data set [2] was “generally safe and well tolerated”. In addition, in data set [2] (setting [8]), the ALT elevation is reported as 3.8 × ULN, the AST elevation stood at 2.9 × ULN and the GGT elevation is 3.3 × ULN. In addition, the “substrate for Pgp” value on P‐glycoprotein (Pgp) is recorded as “substrates”. In data set [3], the “substrate for BCRP” value is given as “substrates”. Further, in data set [4] (setting [9]), the “decrease in mean systemic exposure based on AUCtau” value was 19% and the “decrease in mean systemic exposure based on C max” value was 12%. In data set [4] (human, plasma, oral, 15 mg), the AUC is 12100 ng·h/mL, the highest level (Cmax) was 1340 ng/mL and the Tmax stood at 4 h.

Turning to `CCOc1cccnc1Oc1cncc(-c2ncc(C(=O)N[C@H]3CCOC3)cn2)c1` [ervogastat], the half-maximal effective concentration (EC50) in the data set with CYP3A [5] lay in the range of 21.4 to 37.2 µM. Further, the T max in data set [6] (ervogastat 300 mg + clesacostat 15 mg b.i.d., Day 14, n=9) is 2.00 (1.00–2.00) h. In data set [6] (setting [10]), the PTR (peak-to-trough ratio) turned out to be 150 and the CL/F was 31.76 (34) L/h. In data set [6] (ervogastat 300 mg b.i.d. alone, Day 7, n=9), the T max is given as 2.00 (1.00–4.00) h. For the same compound, in data set [6] (setting [11]), the PTR (peak-to-trough ratio) was 94.3 and the CL/F is on record as 34.41 (19) L/h. In data set [6] (human, plasma, oral, 300 mg), the exposure (AUC) stood at 8720 ng·h/mL and the Cmax came out at 2390 ng/mL. In addition, the Tmax in data set [6] (human, plasma, oral, 300 mg, ervogastat 300 mg b.i.d. alone, Day 7, n=9) was approximately 2 h. In data set [6] (human, plasma, oral, ervogastat 300 mg + clesacostat 15 mg b.i.d., Day 14, n=9), the Tmax was approximately 2 h. The “overall safety and tolerability” value in data set [2] was “generally safe and well tolerated”. At P‐glycoprotein (Pgp), the “inhibition of Pgp” value is given as “may inhibit” and the “substrate for Pgp” value was “substrates”. The “change in 4β-hydroxycholesterol” value in the data set on CYP3A [7] is listed as “no changes”. Besides, in data set [3], the “inhibition of BCRP” value was “may inhibit” and the “substrate for BCRP” value is “substrates”.

What is called AUC is concentration integrated over time. Low readings indicate less exposure, high ones more exposure. By Cmax is commonly meant the maximum level reached in the sampled fluid or tissue. Broadly, the Tmax is the time from dosing to the highest level. For orientation: EC50 means the concentration giving half of the maximal effect.

The values above are taken from article PMC10870243 (Clinical and Translational Science, 2024).
